Results published in US20050113450A1, “Antibacterial agents” (priority 2002, published 2005).
In brackets after ≈: the same amount, converted by molar mass.

System: SA 9218
Experiment: MIC by standard agar dilution method
Assay type: cell-based
Conditions: Mueller Hinton agar, 10^4 to 10^5 cells per spot, incubated overnight at 35° C., lowest concentration that inhibits visible growth
Summary of the method: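 MIC read after overnight 35 °C incubation as lowest drug level preventing visible growth. Inoculum of roughly 10^4–10^5 cells per spot (0.5 McFarland, 1:20 in TSB) applied to Mueller Hinton agar containing serial 2-fold compound dilutions.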

| Compound | MIC | SA 9218 MIC |
| --- | --- | --- |
| N#Cc1ccc(NC(=O)c2cccc(SCc3ccncc3)c2)c(C(=O)O)c1 [PHA-569044] | 0.25 µg/mL (≈ 0.642 µM) |  |
| Cc1noc(C)c1-c1ccc(NC(=O)c2cccc(S(=O)(=O)N3CCc4cc(Cl)ccc43)c2)c(C(=O)O)c1 [PHA-569977] | 16 µg/mL (≈ 29 µM) |  |
| N#Cc1ccc(NC(=O)c2cccc(C(=O)C3CCCC3)c2)c(C(=O)O)c1 [PHA-570042] | 2 µg/mL (≈ 5.52 µM) |  |
| O=C(Nc1ccc(Cl)cc1C(=O)O)c1cc(Br)cc(S(=O)(=O)N2CCc3ccccc32)c1 [PHA-570949] | 1 µg/mL (≈ 1.87 µM) |  |
| CN(C)c1ccc(C(=O)Nc2ccc(C#N)cc2C(=O)O)cc1 [PHA-571157] | 32 µg/mL (≈ 103 µM) |  |
| CC(C)CN(CC(C)C)S(=O)(=O)c1cccc(C(=O)Nc2ccc(C#N)cc2C(=O)O)c1 [PHA-571164] | 8 µg/mL (≈ 17.5 µM) |  |
| N#Cc1ccc(NC(=O)c2cccc(S(=O)(=O)N3CCC3)c2)c(C(=O)O)c1 [PHA-571167] | 32 µg/mL (≈ 83 µM) |  |
| CC(C(O)c1ccccc1)N(C)S(=O)(=O)c1ccc(C(=O)Nc2ccc(C#N)cc2C(=O)O)cc1 (stereo not drawn) [PHA-571183] |  | 32 µg/mL |
| CN(C1CCCCC1)S(=O)(=O)c1cccc(C(=O)Nc2ccc(C#N)cc2C(=O)O)c1 [PHA-571186] | 128 µg/mL (≈ 290 µM) |  |
| N#Cc1ccc(NC(=O)c2ccc(S(=O)(=O)N3CCC(C#N)(c4ccccc4)CC3)cc2)c(C(=O)O)c1 [PHA-571188] | 8 µg/mL (≈ 15.5 µM) |  |
| COc1cc2c(cc1OC)CN(S(=O)(=O)c1cccc(C(=O)Nc3ccc(C#N)cc3C(=O)O)c1)CC2 [PHA-571194] | 4 µg/mL (≈ 7.67 µM) |  |
| CCN(CC)C(=O)C1CCCN(S(=O)(=O)c2ccc(C(=O)Nc3ccc(C#N)cc3C(=O)O)cc2)C1 (stereo not drawn) [PHA-571202] | 128 µg/mL (≈ 250 µM) |  |
| N#Cc1ccc(NC(=O)c2ccc(S(=O)(=O)Nc3ccc4c(c3)CCC4)cc2)c(C(=O)O)c1 [PHA-571207] | 32 µg/mL (≈ 69.3 µM) |  |
| CCCCN(CC)S(=O)(=O)c1ccc(C(=O)Nc2ccc(C#N)cc2C(=O)O)cc1 [PHA-571214] | 16 µg/mL (≈ 37.3 µM) |  |
| CN(CCc1ccccc1)S(=O)(=O)c1cccc(C(=O)Nc2ccc(C#N)cc2C(=O)O)c1 [PHA-571215] | 8 µg/mL (≈ 17.3 µM) |  |
| CC(C)N(Cc1ccccc1)S(=O)(=O)c1cccc(C(=O)Nc2ccc(C#N)cc2C(=O)O)c1 [PHA-571216] | 32 µg/mL (≈ 67 µM) |  |

| Compound | MIC | SA 9218 MIC |
| --- | --- | --- |
| CC(C(O)c1ccccc1)N(C)S(=O)(=O)c1ccc(C(=O)Nc2ccc(C#N)cc2C(=O)O)cc1 (stereo not drawn) [PHA-571228] |  | 32 µg/mL |
| CN(CCC#N)S(=O)(=O)c1ccc(C(=O)Nc2ccc(C#N)cc2C(=O)O)cc1 [PHA-571232] | > 128 µg/mL |  |
| CC1CC(C)CN(S(=O)(=O)c2ccc(C(=O)Nc3ccc(C#N)cc3C(=O)O)cc2)C1 (stereo not drawn) [PHA-571234] | 8 µg/mL (≈ 18.1 µM) |  |
| N#CCCN(Cc1ccccc1)S(=O)(=O)c1cccc(C(=O)Nc2ccc(C#N)cc2C(=O)O)c1 [PHA-571238] | 128 µg/mL (≈ 262 µM) |  |
| N#Cc1ccc(NC(=O)c2ccc(S(=O)(=O)N3CCC3)cc2)c(C(=O)O)c1 [PHA-571239] | 128 µg/mL (≈ 332 µM) |  |
| CC1CCCN(S(=O)(=O)c2ccc(C(=O)Nc3ccc(C#N)cc3C(=O)O)cc2)C1 (stereo not drawn) [PHA-571241] | 16 µg/mL (≈ 37.4 µM) |  |
| CC1CC(C)CN(S(=O)(=O)c2cccc(C(=O)Nc3ccc(C#N)cc3C(=O)O)c2)C1 (stereo not drawn) [PHA-571243] | 4 µg/mL (≈ 9.06 µM) |  |
| C=CCN(C1CCCC1)S(=O)(=O)c1ccc(C(=O)Nc2ccc(C#N)cc2C(=O)O)cc1 [PHA-571253] | 16 µg/mL (≈ 35.3 µM) |  |
| CC(C(O)c1ccccc1)N(C)S(=O)(=O)c1cccc(C(=O)Nc2ccc(C#N)cc2C(=O)O)c1 (stereo not drawn) [PHA-571260] |  | 32 µg/mL |
| N#Cc1ccc(NC(=O)c2cccc(S(=O)(=O)N3CCC(C#N)(c4ccccc4)CC3)c2)c(C(=O)O)c1 [PHA-571262] | 32 µg/mL (≈ 62.2 µM) |  |
| CN(C1CCCCC1)S(=O)(=O)c1ccc(C(=O)Nc2ccc(C#N)cc2C(=O)O)cc1 [PHA-571264] | 32 µg/mL (≈ 72.5 µM) |  |
| N#Cc1ccc(NC(=O)c2ccc(S(=O)(=O)N3CCc4ccccc4C3)cc2)c(C(=O)O)c1 [PHA-571265] | 16 µg/mL (≈ 34.7 µM) |  |
| N#Cc1ccc(NC(=O)c2cccc(S(=O)(=O)N3CCN(c4cccc(C(F)(F)F)c4)CC3)c2)c(C(=O)O)c1 [PHA-571267] | 32 µg/mL (≈ 57.3 µM) |  |
| N#Cc1ccc(NC(=O)c2cccc(S(=O)(=O)N3CCc4ccccc4C3)c2)c(C(=O)O)c1 [PHA-571269] | 16 µg/mL (≈ 34.7 µM) |  |
| CN(CCC#N)S(=O)(=O)c1cccc(C(=O)Nc2ccc(C#N)cc2C(=O)O)c1 [PHA-571271] | 64 µg/mL (≈ 155 µM) |  |

Next, values leading:

| MIC | SA 9218 MIC | Compound |
| --- | --- | --- |
| 1 µg/mL (≈ 2.42 µM) |  | CC1CCCN1S(=O)(=O)c1cccc(C(=O)Nc2ccc(C#N)cc2C(=O)O)c1 (stereo not drawn) [PHA-569064] |
| 1 µg/mL (≈ 2.34 µM) |  | CC1CCC(C)N1S(=O)(=O)c1cccc(C(=O)Nc2ccc(C#N)cc2C(=O)O)c1 (stereo not drawn) [PHA-569077] |
| 0.25 µg/mL (≈ 0.538 µM) |  | N#Cc1ccc(/C=C/c2cccc(S(=O)(=O)N3CCc4cc(Cl)ccc43)c2)c(C(=O)O)c1 [PHA-569887] |
| 1 µg/mL (≈ 2.69 µM) |  | N#Cc1ccc(NC(=O)c2cccc(OCc3ccccc3)c2)c(C(=O)O)c1 [PHA-569974] |
| 8 µg/mL (≈ 27 µM) |  | COc1cccc(C(=O)Nc2ccc(C#N)cc2C(=O)O)c1 [PHA-571151] |
| 64 µg/mL (≈ 171 µM) |  | COc1ccc(Br)c(C(=O)Nc2ccc(C#N)cc2C(=O)O)c1 [PHA-571153] |
| 32 µg/mL (≈ 106 µM) |  | N#Cc1ccc(NC(=O)c2cccc(Cl)c2)c(C(=O)O)c1 [PHA-571155] |
| > 128 µg/mL |  | N#Cc1ccc(NC(=O)c2cccc(S(=O)(=O)N3CCc4ccccc43)c2)c(C(=O)O)c1 [PHA-571161] |
| 32 µg/mL (≈ 69 µM) |  | CN(CCc1ccccc1)S(=O)(=O)c1ccc(C(=O)Nc2ccc(C#N)cc2C(=O)O)cc1 [PHA-571169] |
| 64 µg/mL (≈ 130 µM) |  | N#Cc1ccc(NC(=O)c2cccc(S(=O)(=O)N3CCN(c4ncccn4)CC3)c2)c(C(=O)O)c1 [PHA-571170] |
| 32 µg/mL (≈ 60.1 µM) |  | CC(=O)c1ccc(N2CCN(S(=O)(=O)c3cccc(C(=O)Nc4ccc(C#N)cc4C(=O)O)c3)CC2)cc1 [PHA-571172] |
| 64 µg/mL (≈ 150 µM) |  | N#Cc1ccc(NC(=O)c2ccc(S(=O)(=O)N3CCCCCC3)cc2)c(C(=O)O)c1 [PHA-571174] |
| 64 µg/mL (≈ 125 µM) |  | CCN(CC)C(=O)C1CCCN(S(=O)(=O)c2cccc(C(=O)Nc3ccc(C#N)cc3C(=O)O)c2)C1 (stereo not drawn) [PHA-571176] |
| 64 µg/mL (≈ 144 µM) |  | CC1CN(S(=O)(=O)c2ccc(C(=O)Nc3ccc(C#N)cc3C(=O)O)cc2)CC(C)O1 (stereo not drawn) [PHA-571182] |
| 64 µg/mL (≈ 145 µM) |  | CCC1CCCCN1S(=O)(=O)c1ccc(C(=O)Nc2ccc(C#N)cc2C(=O)O)cc1 (stereo not drawn) [PHA-571189] |
| 64 µg/mL (≈ 130 µM) |  | CN(CCC(O)c1ccccc1)S(=O)(=O)c1cccc(C(=O)Nc2ccc(C#N)cc2C(=O)O)c1 (stereo not drawn) [PHA-571196] |
| 16 µg/mL (≈ 37.3 µM) |  | CCCCN(CC)S(=O)(=O)c1cccc(C(=O)Nc2ccc(C#N)cc2C(=O)O)c1 [PHA-571197] |
| > 128 µg/mL |  | COc1cc2c(cc1OC)CN(S(=O)(=O)c1ccc(C(=O)Nc3ccc(C#N)cc3C(=O)O)cc1)CC2 [PHA-571198] |
| 64 µg/mL (≈ 120 µM) |  | N#Cc1ccc(NC(=O)c2ccc(S(=O)(=O)N3CCN(c4ccc([N+](=O)[O-])cc4)CC3)cc2)c(C(=O)O)c1 [PHA-571199] |

| MIC | SA 9218 MIC | Compound |
| --- | --- | --- |
| 32 µg/mL (≈ 72.6 µM) |  | CCCCN(CC#N)S(=O)(=O)c1ccc(C(=O)Nc2ccc(C#N)cc2C(=O)O)cc1 [PHA-571203] |
| 32 µg/mL (≈ 67 µM) |  | CC(C)N(Cc1ccccc1)S(=O)(=O)c1ccc(C(=O)Nc2ccc(C#N)cc2C(=O)O)cc1 [PHA-571205] |
| 64 µg/mL (≈ 130 µM) |  | N#Cc1ccc(NC(=O)c2cccc(S(=O)(=O)N3CCN(c4ccccc4)CC3)c2)c(C(=O)O)c1 [PHA-571208] |
| 32 µg/mL (≈ 74.5 µM) |  | N#Cc1ccc(NC(=O)c2cccc(S(=O)(=O)N3CCC(O)CC3)c2)c(C(=O)O)c1 [PHA-571219] |
| 8 µg/mL (≈ 18.7 µM) |  | N#Cc1ccc(NC(=O)c2cccc(S(=O)(=O)N3CCCCCC3)c2)c(C(=O)O)c1 [PHA-571224] |
| 64 µg/mL (≈ 130 µM) |  | CC(C(O)c1ccccc1)N(C)S(=O)(=O)c1cccc(C(=O)Nc2ccc(C#N)cc2C(=O)O)c1 (stereo not drawn) [PHA-571226] |
| 16 µg/mL (≈ 31.5 µM) |  | N#Cc1ccc(NC(=O)c2cccc(S(=O)(=O)N3CCN(c4ccc(F)cc4)CC3)c2)c(C(=O)O)c1 [PHA-571230] |
| > 128 µg/mL |  | N#Cc1ccc(NC(=O)c2ccc(S(=O)(=O)N3CCC(O)CC3)cc2)c(C(=O)O)c1 [PHA-571231] |
| 8 µg/mL (≈ 17.1 µM) |  | N#Cc1ccc(NC(=O)c2cccc(S(=O)(=O)N3CCCC4CCCCC43)c2)c(C(=O)O)c1 (stereo not drawn) [PHA-571235] |
| 16 µg/mL (≈ 36.3 µM) |  | CCCCN(CC#N)S(=O)(=O)c1cccc(C(=O)Nc2ccc(C#N)cc2C(=O)O)c1 [PHA-571237] |
| 16 µg/mL (≈ 37.4 µM) |  | CC1CCN(S(=O)(=O)c2ccc(C(=O)Nc3ccc(C#N)cc3C(=O)O)cc2)CC1 [PHA-571240] |
| 32 µg/mL (≈ 64.8 µM) |  | CC(C(O)c1ccccc1)N(C)S(=O)(=O)c1ccc(C(=O)Nc2ccc(C#N)cc2C(=O)O)cc1 (stereo not drawn) [PHA-571242] |
| 32 µg/mL (≈ 65.5 µM) |  | N#CCCN(Cc1ccccc1)S(=O)(=O)c1ccc(C(=O)Nc2ccc(C#N)cc2C(=O)O)cc1 [PHA-571246] |
| 16 µg/mL (≈ 34.2 µM) |  | N#Cc1ccc(NC(=O)c2ccc(S(=O)(=O)N3CCCC4CCCCC43)cc2)c(C(=O)O)c1 (stereo not drawn) [PHA-571249] |
| > 128 µg/mL |  | N#Cc1ccc(NC(=O)c2ccc(S(=O)(=O)N3CCOCC3)cc2)c(C(=O)O)c1 [PHA-571255] |
| 64 µg/mL (≈ 144 µM) |  | COCC1CCCN1S(=O)(=O)c1ccc(C(=O)Nc2ccc(C#N)cc2C(=O)O)cc1 (stereo not drawn) [PHA-571257] |
| 16 µg/mL (≈ 36.2 µM) |  | CCC1CCCCN1S(=O)(=O)c1cccc(C(=O)Nc2ccc(C#N)cc2C(=O)O)c1 (stereo not drawn) [PHA-571263] |
| 8 µg/mL (≈ 18.7 µM) |  | CC1CCCN(S(=O)(=O)c2cccc(C(=O)Nc3ccc(C#N)cc3C(=O)O)c2)C1 (stereo not drawn) [PHA-571270] |
|  | 32 µg/mL | CC(C(O)c1ccccc1)N(C)S(=O)(=O)c1cccc(C(=O)Nc2ccc(C#N)cc2C(=O)O)c1 (stereo not drawn) [PHA-571272] |
